Assay results from patent publication US20210000740A1, “COMPOSITIONS FOR SMALL MOLECULE THERAPEUTIC AGENT COMPOUNDS” (Delpor, Inc., priority 2018, published 2021).
Converted amounts (≈) assume the structure as drawn. Read-outs that look alike come from different tables or passages of the source.

Key:
[1] = cited from earlier work; for Water Solubility: intrinsic water solubility of the acid used in Example 5
[2] = In vitro pH of compositions prepared with organic acids (Table 1); format: physicochemical; conditions: composition prepared with the organic acid
Description: Compositions were prepared with the following organic acids listed in Table 1, and pH values were measured.

[3] = cited from earlier work
[4] = cited from earlier work; remark: listed apart in the source
[5] = pH of a saturated aqueous solution of the acid; format: physicochemical; conditions: excluding the drug
Description: The rates of in vitro release of the risperidone salts listed in Example 5 are also related in part to the pH of a saturated aqueous solution of the acid. The pH at saturating concentrations of the acids used in Example 5 and their respective risperidone release rates (expressed as the cumulative percent total risperidone released following 15 days incubation at 37° C.) are shown in FIG. 7.

[6] = in vitro, after 28 days, PBS 37° C.

O=C(O)C(O)c1ccccc1 (racemic) [rac-Mandelic]
Solubility ([1]; organic acid, Table 1): 158700 µg/mL (≈ 1040 mM)
In vitro pH [2]: 2.42
pKa ([3]; organic acid, Table 1): 3.85

O=C(O)C=Cc1ccc(Cl)cc1 [4-Chlorocinnamic]
In vitro pH [2]: 6.34
pKa ([3]; organic acid, Table 1): 4.41

Cc1ccc(C=CC(=O)O)cc1 [4-Methylcinnamic]
In vitro pH [2]: 6.13

O=C1CC2(CCCC2)CC(=O)N1CCCCN1CCN(c2ncccn2)CC1 [Buspirone]
room temperature water solubility ([4]; room temperature): about 21 mg/L

CN(C)CCC[C@@]1(c2ccc(F)cc2)OCc2cc(C#N)ccc21 [Escitalopram]
water solubility (in words) [4]: practically insoluble in water

O=C(O)CNC(=O)c1ccccc1 [Hippuric acid]
pH at a saturating concentration [5]: 2.6

O=C(O)CCc1ccc(O)cc1 [Hydroxyphenylpropionic acid, 3-(4-hydroxyphenyl)propionic acid]
Water Solubility [1]: 2760 µg/mL
pH at a saturating concentration [5]: 3.0

O=C(O)c1cccnc1 [Nicotinic, nicotinic acid]
In vitro pH [2]: 3.68

Nc1ccc(C(=O)O)cc1 [PABA, p-aminobenzoic acid]
In vitro pH [2]: 4.21
pKa ([3]; organic acid, Table 1): 4.65

CCN(C)C(=O)Oc1cccc([C@H](C)N(C)C)c1 [Rivastigmine]
water solubility (in words) [4]: poorly water soluble

CCCN(CCc1cccs1)[C@H]1CCc2c(O)cccc2C1 [Rotigotine]
water solubility (in words) [4]: practically insoluble in water

O=C(O)CCCCCCCCC(=O)O [Sebacic, sebacic acid]
pKa ([3]; organic acid, Table 1): 4.72

O=c1[nH]c(=O)c2[nH]c(=O)[nH]c2[nH]1 [Uric acid]
Water Solubility [1]: 60 µg/mL

O=C(O)/C=C/c1cccc(O)c1 [m-Coumaric, m-coumaric acid]
Solubility [1]: 1040 µg/mL (≈ 6.34 mM)
In vitro pH [2]: 3.95
pKa [3]: 4.01

COc1cccc(C=CC(=O)O)c1 [m-Methoxycinnamic, m-methoxycinnamic acid]
Solubility ([1]; organic acid, Table 1): 4460 µg/mL (≈ 25 mM)
In vitro pH [2]: 4.49
pKa ([3]; organic acid, Table 1): 4.47

Cc1cc2c(s1)Nc1ccccc1N=C2N1CCN(C)CC1 [olanzapine, reference compound]
pKa1 ([3]; reported value, doubly protonated olanzapine): 5.0
water solubility (in words) [4]: poorly water soluble

Cc1nccn1CC1CCc2c(c3ccccc3n2C)C1=O (stereo not drawn) [ondansetron]
water solubility (in words) [4]: limited water solubility

COc1ccc(C(=O)O)cc1 [p-Anisic, p-anisic acid]
Solubility ([1]; organic acid, Table 1): 400 µg/mL (≈ 2.63 mM)
In vitro pH [2]: 5.05
pKa ([3]; organic acid, Table 1): 4.34

O=C(O)/C=C/c1ccc(O)cc1 [p-Coumaric, p-coumaric acid]
Solubility ([1]; organic acid, Table 1): 1000 to 10000 µg/mL
In vitro pH [2]: 4.36

COc1ccc(C=CC(=O)O)cc1 [p-Methoxycinnamic, p-methoxycinnamic acid]
Solubility ([1]; organic acid, Table 1): 712 µg/mL (≈ 4 mM)
In vitro pH [2]: 5.37
pKa ([3]; organic acid, Table 1): 4.04

Cc1nc2n(c(=O)c1CCN1CCC(c3noc4cc(F)ccc34)CC1)CCCC2 [risperidone]
insolubility in water as a neutral free base ([4]; 20-25° C.): > 10000 volumes of water per volume of drug

Clc1ccc2nsnc2c1NC1=NCCN1 [tizanidine free base, tizanidine]
percent of the drug released [6]: approximately 10%

O=C(O)/C=C/c1ccccc1 [trans-Cinnamic, trans-cinnamic acid]
In vitro pH [2]: 4.35

CCCc1nc(C)c2c(=O)[nH]c(-c3cc(S(=O)(=O)N4CCN(CC)CC4)ccc3OCC)nn12 [vardenafil]
water solubility (in words) [4]: limited water solubility
